Reference: ChEMBL document CHEMBL3885881, “DrugMatrix”

Species on record: Rattus norvegicus
Test: DrugMatrix - Regimen: Daily Repeat
Assay type: toxicity, organism-based, Sprague-Dawley
Set-up: regimen Daily Repeat, gender Male, age 6-8 weeks
Settings: in vivo, sc, route subcutaneous, […]; for ABSOLUTE BASOPHIL / ABSOLUTE EOSINOPHIL / ABSOLUTE LYMPHOCYTE / ABSOLUTE MONOCYTE / ABSOLUTE SEGMENTED NEUTROPHIL / BASOPHIL / EOSINOPHIL / ERYTHROCYTE COUNT / HEMATOCRIT / HEMOGLOBIN / LEUKOCYTE COUNT / LYMPHOCYTE / MEAN CORPUSCULAR HEMOGLOBIN / MEAN CORPUSCULAR HEMOGLOBIN CONCENTRATION / MEAN CORPUSCULAR VOLUME / MONOCYTE / NEUTROPHIL / NUCLEATED RED BLOOD CELLS / PLATELET COUNT: tissue Blood; for ALANINE AMINOTRANSFERASE / ALBUMIN / ALKALINE PHOSPHATASE / ASPARTATE AMINOTRANSFERASE / BLOOD UREA NITROGEN / CARBON DIOXIDE / CHLORIDE / CHOLESTEROL / CREATINE PHOSPHOKINASE / CREATININE / GLUCOSE / LACTATE DEHYDROGENASE / LIPASE / PHOSPHORUS / POTASSIUM / SODIUM / TOTAL BILIRUBIN / TOTAL PROTEIN / URIC ACID: tissue Plasma
[1] = 29 mg/kg, 120 h, dose level Low, time 5 day
[2] = 1200 mg/kg, 72 h, dose level High, time 3 day
[3] = 1200 mg/kg, 120 h, dose level High, time 5 day

## Nc1nc2c(ncn2CCC(CO)CO)c(=O)[nH]1 [PENCICLOVIR]
[1]
  ABSOLUTE BASOPHIL: 0 CELLS/uL
  ABSOLUTE EOSINOPHIL: 0 CELLS/uL
  ABSOLUTE LYMPHOCYTE: 9185.33 CELLS/uL
  ABSOLUTE MONOCYTE: 38 CELLS/uL
  ABSOLUTE SEGMENTED NEUTROPHIL: 2710 CELLS/uL
  BASOPHIL: 0%
  EOSINOPHIL: 0%
  ERYTHROCYTE COUNT: 5.6 x10E6/uL
  HEMATOCRIT: 35.77%
  HEMOGLOBIN: 13.33 G/DL
  LEUKOCYTE COUNT: 11.93 x10E3/uL
  LYMPHOCYTE: 77%
  MEAN CORPUSCULAR HEMOGLOBIN: 23.83 pg
  MEAN CORPUSCULAR HEMOGLOBIN CONCENTRATION: 37.27 G/DL
  MEAN CORPUSCULAR VOLUME: 63.8 fL
  MONOCYTE: 0.33%
  NEUTROPHIL: 22.67%
  NUCLEATED RED BLOOD CELLS: 0 /100WBC
  PLATELET COUNT: 979 x10E3/uL
  ALANINE AMINOTRANSFERASE: 64 u/L
  ALBUMIN: 3.9 G/DL
  ALKALINE PHOSPHATASE: 325.67 u/L
  ASPARTATE AMINOTRANSFERASE: 95 u/L
  BLOOD UREA NITROGEN: 19 mg/dL
  CARBON DIOXIDE: 24.67 mmol/L
  CHLORIDE: 105.33 MEQ/L
  CHOLESTEROL: 96.67 mg/dL
  CREATINE PHOSPHOKINASE: 520.33 u/L
  CREATININE: 0.18 mg/dL
  GLUCOSE: 168.33 mg/dL
  LACTATE DEHYDROGENASE: 141.67 u/L
  LIPASE: 8 u/L
  PHOSPHORUS: 14.77 mg/dL
  POTASSIUM: 6.25 MEQ/L
  SODIUM: 144.77 MEQ/L
  TOTAL BILIRUBIN: 0.17 mg/dL
  TOTAL PROTEIN: 5.7 G/DL
  URIC ACID: 1.5 mg/dL
[2]
  ABSOLUTE BASOPHIL: 0 CELLS/uL
  ABSOLUTE EOSINOPHIL: 107.33 CELLS/uL
  ABSOLUTE LYMPHOCYTE: 7265 CELLS/uL
  ABSOLUTE MONOCYTE: 87 CELLS/uL
  ABSOLUTE SEGMENTED NEUTROPHIL: 974 CELLS/uL
  BASOPHIL: 0%
  EOSINOPHIL: 1.33%
  ERYTHROCYTE COUNT: 4.97 x10E6/uL
  HEMATOCRIT: 30.73%
  HEMOGLOBIN: 11.67 G/DL
  LEUKOCYTE COUNT: 8.43 x10E3/uL
  LYMPHOCYTE: 86.33%
  MEAN CORPUSCULAR HEMOGLOBIN: 23.43 pg
  MEAN CORPUSCULAR HEMOGLOBIN CONCENTRATION: 37.97 G/DL
  MEAN CORPUSCULAR VOLUME: 61.77 fL
  MONOCYTE: 1%
  NEUTROPHIL: 11.33%
  NUCLEATED RED BLOOD CELLS: 0.33 /100WBC
  PLATELET COUNT: 1398.33 x10E3/uL
  ALANINE AMINOTRANSFERASE: 36 u/L
  ALBUMIN: 3.13 G/DL
  ALKALINE PHOSPHATASE: 311.67 u/L
  ASPARTATE AMINOTRANSFERASE: 64.33 u/L
  BLOOD UREA NITROGEN: 12.33 mg/dL
  CARBON DIOXIDE: 28 mmol/L
  CHLORIDE: 105.5 MEQ/L
  CHOLESTEROL: 58.33 mg/dL
  CREATINE PHOSPHOKINASE: 201.33 u/L
  CREATININE: 0.19 mg/dL
  GLUCOSE: 132.67 mg/dL
  LACTATE DEHYDROGENASE: 105.67 u/L
  LIPASE: 6.5 u/L
  PHOSPHORUS: 10.63 mg/dL
  POTASSIUM: 5.8 MEQ/L
  SODIUM: 147.5 MEQ/L
  TOTAL BILIRUBIN: 0.0667 mg/dL
  TOTAL PROTEIN: 5.97 G/DL
  URIC ACID: 0.93 mg/dL
[3]
  ABSOLUTE BASOPHIL: 0 CELLS/uL
  ABSOLUTE EOSINOPHIL: 219.33 CELLS/uL
  ABSOLUTE LYMPHOCYTE: 14998.67 CELLS/uL
  ABSOLUTE MONOCYTE: 280 CELLS/uL
  ABSOLUTE SEGMENTED NEUTROPHIL: 5502 CELLS/uL
  BASOPHIL: 0%
  EOSINOPHIL: 1%
  ERYTHROCYTE COUNT: 4.92 x10E6/uL
  HEMATOCRIT: 30.6%
  HEMOGLOBIN: 11.77 G/DL
  LEUKOCYTE COUNT: 21 x10E3/uL
  LYMPHOCYTE: 71.33%
  MEAN CORPUSCULAR HEMOGLOBIN: 23.97 pg
  MEAN CORPUSCULAR HEMOGLOBIN CONCENTRATION: 38.47 G/DL
  MEAN CORPUSCULAR VOLUME: 62.2 fL
  MONOCYTE: 1.33%
  NEUTROPHIL: 26.33%
  NUCLEATED RED BLOOD CELLS: 0 /100WBC
  PLATELET COUNT: 2260.33 x10E3/uL
  ALANINE AMINOTRANSFERASE: 31.33 u/L
  ALBUMIN: 2.63 G/DL
  ALKALINE PHOSPHATASE: 297.33 u/L
  ASPARTATE AMINOTRANSFERASE: 73.67 u/L
  BLOOD UREA NITROGEN: 22 mg/dL
  CARBON DIOXIDE: 25.33 mmol/L
  CHLORIDE: 103 MEQ/L
  CHOLESTEROL: 52 mg/dL
  CREATINE PHOSPHOKINASE: 232.33 u/L
  CREATININE: 0.34 mg/dL
  GLUCOSE: 147 mg/dL
  LACTATE DEHYDROGENASE: 216.33 u/L
  LIPASE: 6.67 u/L
  PHOSPHORUS: 12 mg/dL
  POTASSIUM: 6.2 MEQ/L
  SODIUM: 143.07 MEQ/L
  TOTAL BILIRUBIN: 0.1 mg/dL
  TOTAL PROTEIN: 5.73 G/DL
  URIC ACID: 2.3 mg/dL
